≈ marks a conversion by molar mass, not a printed value. Structures can show the parent of a compound that is named as a salt. Where two headings read alike, the source gives them in different places.
Key:
[1] = test system: Citrobacter freundii BS-16; assay: In vitro MIC, Broth Dilution Method; type: cell-based; conditions: BS16; Broth Dilution Method; Citrobacter freundii BS-16; read-out: In Vitro MIC
Method: (§1) The diluted agents prepared in Mueller-Hinton broth were dispensed from a Dynatech MIC 2000 machine, in 100 microliter (μL) volumes into 96 well trays and used immediately or frozen at -10° to -70° C. until needed. Using a Dynatech inoculator and inoculum trays, 1.5 μL of a 10^-2 dilution of an overnight culture was added to each well of the tray. The tops of the trays were then sealed with tape, and the trays were incubated overnight at 37° C. and then examined with a viewer. The lowest concentration at which no growth was observed was considered to be the minimum inhibitory concentration (MIC).

[2] = test system: Enterobacter cloacae 5699; assay: In vitro MIC, Broth Dilution Method; type: cell-based
Method: as §1

[3] = test system: Enterobacter cloacae P99; assay: In vitro MIC, Broth Dilution Method; type: cell-based; conditions: P99, read-out: In Vitro MIC
Method: as §1

[4] = test system: Escherichia coli 4; assay: In vitro MIC, Broth Dilution Method; type: cell-based
Method: as §1

[5] = test system: Escherichia coli TEM-1; assay: In vitro MIC, Broth Dilution Method; type: cell-based; conditions: TEM1, read-out: In Vitro MIC
Method: as §1

[6] = test system: Klebsiella pneumoniae A; assay: In vitro MIC, Broth Dilution Method; type: cell-based; conditions: read-out: In Vitro MIC
Method: as §1

[7] = test system: Proteus mirabilis 2; assay: In vitro MIC, Broth Dilution Method; type: cell-based
Method: as §1

[8] = test system: Proteus mirabilis 90; assay: In vitro MIC, Broth Dilution Method; type: cell-based
Method: as §1

[9] = test system: Proteus vulgaris ATCC 6380; assay: In vitro MIC, Broth Dilution Method; type: cell-based; conditions: Proteus vulgaris, ATCC6380, read-out: In Vitro MIC
Method: as §1

[10] = test system: Pseudomonas aeruginosa ATCC 27853; assay: In vitro MIC, Broth Dilution Method; type: cell-based; conditions: ATCC27853; Broth Dilution Method; Pseudomonas aeruginosa ATCC 27853; read-out: In Vitro MIC
Method: as §1

[11] = test system: Pseudomonas aeruginosa Stone 130; assay: In vitro MIC, Broth Dilution Method; type: cell-based
Method: as §1

[12] = test system: Serratia marcescens SM; assay: In vitro MIC, Broth Dilution Method; type: cell-based; conditions: read-out: In Vitro MIC
Method: as §1

[13] = test system: Staphylococcus aureus ATCC 29213; assay: In vitro MIC, Broth Dilution Method; type: cell-based
Method: as §1

[14] = test system: Staphylococcus aureus Smith; assay: In vitro MIC, Broth Dilution Method; type: cell-based; conditions: read-out: In Vitro MIC
Method: as §1

[15] = test system: Streptococcus faecalis ATCC 29212; assay: In vitro MIC, Broth Dilution Method; type: cell-based; conditions: Enterococcus faecalis, ATCC29212; Broth Dilution Method; Streptococcus faecalis ATCC 29212; read-out: In Vitro MIC
Method: as §1

[16] = test system: Streptococcus pneumoniae 6301; assay: In vitro MIC, Broth Dilution Method; type: cell-based
Method: as §1

[17] = test system: Enterobacter cloacae 2952B; assay: In vitro MIC, Agar Well Diffusion Method; type: cell-based; conditions: read-out: In Vitro MIC
Method: (§2) In vitro antimicrobial activity was determined in BBL seed agar. Serial dilutions of the test compound were pipetted into agar wells (80 μL per well). […] For reference, see A. H. Litton, Antibiotics: Assessment of Antimicrobial Activity and Resistance, Academic Press, New York, pages 19-30 (1983).

[18] = test system: Escherichia coli 1269B; assay: In vitro MIC, Agar Well Diffusion Method; type: cell-based; conditions: read-out: In Vitro MIC
Method: as §2

[19] = test system: Klebsiella pneumoniae 369; assay: In vitro MIC, Agar Well Diffusion Method; type: cell-based
Method: as §2

[20] = test system: Micrococcus luteus PCl; assay: In vitro MIC, Agar Well Diffusion Method; type: cell-based; conditions: read-out: In Vitro MIC
Method: as §2

[21] = test system: Proteus vulgaris 101N; assay: In vitro MIC, Agar Well Diffusion Method; type: cell-based; conditions: read-out: In Vitro MIC
Method: as §2

[22] = test system: Pseudomonas aeruginosa 56; assay: In vitro MIC, Agar Well Diffusion Method; type: cell-based
Method: as §2

[23] = test system: Pseudomonas aeruginosa B; assay: In vitro MIC, Agar Well Diffusion Method; type: cell-based; conditions: read-out: In Vitro MIC
Method: as §2

[24] = test system: Serratia marcescens SM; assay: In vitro MIC, Agar Well Diffusion Method; type: cell-based; conditions: read-out: In Vitro MIC
Method: as §2

[25] = test system: Streptococcus faecium ATCC 8043; assay: In vitro MIC, Agar Well Diffusion Method; type: cell-based; conditions: Enterococcus faecium
Method: as §2

[26] = test system: Streptococcus 82; assay: In vitro MIC, Agar Well Diffusion Method; type: cell-based, Streptococcus aureus
Method: as §2

[27] = stability of the product (remark in the preparation); type: physicochemical; conditions: remark on the isolated product
[28] = Broth Dilution Method, Enterobacter cloacae 5699, read-out: In Vitro MIC
[29] = Broth Dilution Method, Escherichia coli 4, read-out: In Vitro MIC
[30] = Broth Dilution Method, Klebsiella pneumoniae A
[31] = Broth Dilution Method, Proteus mirabilis 2, read-out: In Vitro MIC
[32] = Broth Dilution Method, Proteus mirabilis 90, read-out: In Vitro MIC
[33] = STONE130, Broth Dilution Method, Pseudomonas aeruginosa Stone 130, read-out: In Vitro MIC
[34] = Broth Dilution Method, Serratia marcescens SM
[35] = ATCC29213, Broth Dilution Method, Staphylococcus aureus ATCC 29213, read-out: In Vitro MIC
[36] = Broth Dilution Method, Staphylococcus aureus Smith
[37] = Agar Well Diffusion Method, Enterobacter cloacae 2952B
[38] = Agar Well Diffusion Method, Escherichia coli 1269B
[39] = Agar Well Diffusion Method, Klebsiella pneumoniae 369, read-out: In Vitro MIC
[40] = Agar Well Diffusion Method, Micrococcus luteus PCl
[41] = Agar Well Diffusion Method, Proteus vulgaris 101N
[42] = Agar Well Diffusion Method, Pseudomonas aeruginosa 56, read-out: In Vitro MIC
[43] = Agar Well Diffusion Method, Pseudomonas aeruginosa B
[44] = Agar Well Diffusion Method, Serratia marcescens SM
[45] = ATCC8043, Agar Well Diffusion Method, Streptococcus faecium ATCC 8043, read-out: In Vitro MIC
[46] = Agar Well Diffusion Method, Streptococcus aureus 82, read-out: In Vitro MIC
[47] = Escherichia coli, 4, read-out: In Vitro MIC
[48] = Proteus mirabilis, 2, read-out: In Vitro MIC
[49] = Broth Dilution Method, Streptococcus pneumoniae 6301, read-out: In Vitro MIC
[50] = Enterobacter cloacae, 5699, read-out: In Vitro MIC
[51] = Proteus mirabilis, 90, read-out: In Vitro MIC
[52] = Pseudomonas aeruginosa, STONE130, read-out: In Vitro MIC

Structure (SMILES) | MIC [1] [µg/mL] | MIC [2, 28] [µg/mL] | MIC [3] [µg/mL] | MIC [5] [µg/mL] | MIC [6, 30] [µg/mL] | MIC [9] [µg/mL] | MIC [10] [µg/mL] | MIC [12, 34] [µg/mL] | MIC [13, 35] [µg/mL] | MIC [15] [µg/mL] | MIC [17, 37] [µg/mL] | MIC [18, 38] [µg/mL] | MIC [19, 39] [µg/mL] | MIC [20, 40] [µg/mL] | MIC [21, 41] [µg/mL] | MIC [22, 42] [µg/mL] | MIC [23, 43] [µg/mL] | MIC [24, 44] [µg/mL] | MIC [25, 45] [µg/mL] | MIC [26, 46] [µg/mL] | further results
CCn1cc(C(=O)OC)c(=O)c2cc(F)c(N3CCN(C=N[C@@H]4C(=O)N5[C@@H]4SC(C)(C)[C@@H]5C(=O)O)CC3)cc21 [Compound A] | 32 (≈ 57.2 µM) | 8 (≈ 14.3 µM) | 8 (≈ 14.3 µM) | 4 (≈ 7.15 µM) | 16 (≈ 28.6 µM) | 4 (≈ 7.15 µM) | > 128 | 16 (≈ 28.6 µM) | 16 (≈ 28.6 µM) | 32 (≈ 57.2 µM) | 62.5 (≈ 112 µM) | 62.5 (≈ 112 µM) | 125 (≈ 223 µM) | 31.3 (≈ 55.9 µM) | 62.5 (≈ 112 µM) | 500 (≈ 893 µM) | 250 (≈ 447 µM) | 250 (≈ 447 µM) | 250 (≈ 447 µM) | 7.8 (≈ 13.9 µM) | MIC [4, 29]: 8 µg/mL (≈ 14.3 µM); MIC [7, 31]: 8 µg/mL (≈ 14.3 µM); MIC [8, 32]: 32 µg/mL (≈ 57.2 µM); MIC [11, 33]: 64 µg/mL (≈ 114 µM); MIC [14, 36]: 2 µg/mL (≈ 3.57 µM); MIC ([16]; Streptococcus pneumoniae, 6301, read-out: In Vitro MIC): 1 µg/mL (≈ 1.79 µM)
CC1(C)S[C@@H]2[C@H](N=CN3CCN(c4c(F)cc5c(=O)c(C(=O)O)cn(CCF)c5c4F)CC3)C(=O)N2[C@H]1C(=O)O [Compound D, 2R-(2α,5α,6β)]-7-[4-[[(2-Carboxy-3,3-dimethyl-7-oxo-4-thia-1-azabicyclo[3.2.0]hept-6-yl)amino]-methylene]-1-piperazinyl]-6,8-difluoro-1-(2-fluoroethyl)-1,4-dihydro-4-dihydro-4-oxo-3-quinoline-carboxylic acid monosodium salt] | 1 | 0.25 | 0.125 | 0.125 |  | 0.063 | 2 | 0.25 | 4 | 32 | 7.8 | 1.95 | 7.8 | 15.6 | 1.95 | 7.8 | 15.6 | 31.3 | 15.6 | 3.9 | MIC [4, 47]: 0.125 µg/mL; MIC ([6]; Klebsiella pneumoniae): 0.125 µg/mL; MIC [7, 48]: 0.125 µg/mL; MIC [8, 32]: 1 µg/mL; MIC [11, 33]: 4 µg/mL; MIC ([14]; Staphylococcus aureus): 0.5 µg/mL; MIC [16, 49]: 2 µg/mL
CCn1cc(C(=O)[O-])c(=O)c2cc(F)c(N3CCN(C=N[C@H]4CN(S(=O)(=O)[O-])C4=O)CC3)cc21.[Na+].[Na+] [Compound E, (S)-1-Ethyl-6-fluoro-1,4-dihydro-4-oxo-7-[4-[[(1-sulfo-2-oxo-3-azetidinyl)imino]methyl]-1-piperazinyl]-3-quinolinecarboxylic acid disodium salt] |  |  | 0.063 | 0.063 |  | 0.031 |  |  |  |  |  |  |  |  |  |  |  |  |  |  | MIC [2, 50]: 0.125 µg/mL; MIC [4, 47]: 0.125 µg/mL; MIC ([6]; Klebsiella pneumoniae): 0.125 µg/mL; MIC [7, 48]: 0.063 µg/mL; MIC [8, 51]: 0.063 µg/mL; MIC [11, 52]: 1 µg/mL; MIC ([12]; Serratia marcescens): 0.063 µg/mL; MIC ([13]; Staphylococcus aureus, ATCC29213, read-out: In Vitro MIC): 2 µg/mL; MIC ([14]; Staphylococcus aureus): 0.5 µg/mL; MIC ([17]; Enterobacter cloacae, 2952B): 31.3 µg/mL; MIC ([18]; Escherichia coli, 1269B): 7.8 µg/mL; MIC ([19]; Klebsiella pneumoniae, 369, read-out: In Vitro MIC): 3.9 µg/mL; MIC ([20]; Micrococcus luteus): > 125 µg/mL; MIC ([21]; Proteus vulgaris, 101N): 1.95 µg/mL; MIC ([22]; Pseudomonas aeruginosa, 56, read-out: In Vitro MIC): 7.8 µg/mL; MIC ([23]; Pseudomonas aeruginosa): 3.9 µg/mL; MIC ([24]; Serratia marcescens): 3.9 µg/mL; MIC ([25]; ATCC8043, read-out: In Vitro MIC): > 125 µg/mL; MIC ([26]; Streptococcus, 82, read-out: In Vitro MIC): 15.6 µg/mL
CCn1cc(C(=O)O)c(=O)c2cc(F)c(N3CCCN(C=N[C@@H]4C(=O)N5[C@@H]4SC(C)(C)[C@@H]5C(=O)O)CC3)cc21 [Compound G, [2S-(2α,5α,6β)]-7-[4-[[)2-Carboxy-3,3-dimethyl-7-oxo-4-thia-1-azabicyclo[3.2.0]hept-6-yl)-imino]methyl]hexahydro-1H-1,4-diazepin-1-yl]-1-ethyl-6-fluoro-1,4-dihydro-4-oxo-3-quinolinecarboxylic acid disodium salt] | 8 | 2 | 2 | 1 | 2 | 1 | 16 | 2 | 16 | 64 | 100 | 50 | 100 | 25 | 50 | 100 | 50 | 50 | > 400 | 50 | MIC [4, 29]: 2 µg/mL; MIC [7, 48]: 4 µg/mL; MIC [8, 32]: 8 µg/mL; MIC [11, 33]: 8 µg/mL; MIC [14, 36]: 2 µg/mL; MIC [16, 49]: 2 µg/mL
CCn1cc(C(=O)O)c(=O)c2cc(F)c(N3CCN(C=N[C@@H]4C(=O)N5[C@@H]4SC(C)(C)[C@@H]5C(=O)O)CC3)nc21 [Compound H, disodium salt] | 0.5 |  | 0.125 | 0.125 | 0.25 | 0.125 | 8 | 0.5 | 0.5 | 8 | 31.3 | 7.8 | 7.8 | 31.3 | 7.8 | 15.6 | 15.6 | 31.3 | 125 | 7.8 | MIC [2, 50]: 0.125 µg/mL; MIC [4, 47]: 0.125 µg/mL; MIC [7, 31]: 0.5 µg/mL; MIC [8, 51]: 1 µg/mL; MIC [11, 52]: 1 µg/mL; MIC [14, 36]: 0.5 µg/mL; MIC [16, 49]: 2 µg/mL; stability [27]: very unstable
